Values of other authors in US11793840B2, “Nano-armored single cell product for treating Parkinson's disease through bacteria and a preparation method thereof” (Tangyi Holdings(Shenzhen) Limited, priority 2021, dated 2023).

NCCCC(=O)O [GABA, Gamma-aminobutyric acid]
in-vivo terminal elimination half-life (in vivo): 25.1 min | oral bioavailability (oral administration of GABA): 9.81%
